Data taken from US10004701B2, “Methods and compositions for treating infection” (UNIVERSITY OF ROCHESTER, priority 2012, dated 2018).
Where a name gives a salt, the structure may show the parent alone. Read-outs that look alike come from different tables or passages of the source.

What was measured:
Test in all cases: AK assay 384-well format, Prestwick library screening
E. faecium = assay type: cell-based, Enterococcus faecium; settings: for fold induction at 50 µM: Enterococcus faecium, 3 h
P. aeruginosa = assay type: cell-based, Pseudomonas aeruginosa; settings: for fold induction at 50 µM: Pseudomonas aeruginosa, 3 h
K. pneumoniae = assay type: cell-based, Klebsiella pneumoniae; settings: for fold induction at 50 µM: Klebsiella pneumoniae, 3 h
E. cloacae = assay type: cell-based, Enterobacter cloacae; settings: for fold induction at 50 µM: Enterobacter cloacae, 3 h
E. coli = assay type: cell-based, Escherichia coli; settings: for fold induction at 50 µM: Escherichia coli, 3 h
[1] = tested on: S. aureus strain USA300-0114; assay type: cell-based, Staphylococcus aureus; settings: for fold induction at 50 µM: Staphylococcus aureus, USA300, 3 h
[2] = tested on: A. baumannii strain 98-37-09; assay type: cell-based, Acinetobacter baumannii; settings: for fold induction at 50 µM: Acinetobacter baumannii, 983709, 3 h
[3] = 50 μM final drug concentration, 384-well format, cutoff for positive-scoring molecules 3-fold increase, read-out: AK-based Prestwick Library Screening Results, E. faecium (increase in extracellular AK activity)
[4] = 50 μM final drug concentration, 384-well format, cutoff for positive-scoring molecules 3-fold increase, read-out: AK-based Prestwick Library Screening Results, P. aeruginosa (increase in extracellular AK activity)
[5] = 50 μM final drug concentration, 384-well format, cutoff for positive-scoring molecules 3-fold increase, read-out: AK-based Prestwick Library Screening Results, K. pneumoniae (increase in extracellular AK activity)
[6] = 50 μM final drug concentration, 384-well format, cutoff for positive-scoring molecules 3-fold increase, read-out: AK-based Prestwick Library Screening Results, E. cloacae (increase in extracellular AK activity)
[7] = 50 μM final drug concentration, 384-well format, cutoff for positive-scoring molecules 3-fold increase, read-out: AK-based Prestwick Library Screening Results, E. coli (increase in extracellular AK activity)
[8] = 50 μM final drug concentration, 384-well format, cutoff for positive-scoring molecules 3-fold increase, read-out: AK-based Prestwick Library Screening Results, S. aureus (increase in extracellular AK activity)
[9] = 50 μM final drug concentration, 384-well format, cutoff for positive-scoring molecules 3-fold increase, read-out: AK-based Prestwick Library Screening Results, A. baumannii (increase in extracellular AK activity)

Compound: CCC(=O)OCC(=O)[C@@]1(OC(=O)CC)[C@H](C)C[C@H]2[C@H]3[C@H]([C@@H](O)C[C@@]21C)[C@@]1(C)C=CC(=O)C=C1C[C@H]3Cl [Alclometasone dipropionate]
- fold induction at 50 µM (E. faecium; 50 μM final drug concentration, […], read-out: AK-based Prestwick Library Screening Results, E. faecium (fold increase in extracellular AK activity)): 1
- fold induction at 50 µM (P. aeruginosa; 50 μM final drug concentration, […], read-out: AK-based Prestwick Library Screening Results, P. aeruginosa (fold increase in extracellular AK activity)): 1
- fold induction at 50 µM (K. pneumoniae; 50 μM final drug concentration, […], read-out: AK-based Prestwick Library Screening Results, K. pneumoniae (fold increase in extracellular AK activity)): 1.1
- fold induction at 50 µM (E. cloacae; 50 μM final drug concentration, […], read-out: AK-based Prestwick Library Screening Results, E. cloacae (fold increase in extracellular AK activity)): 1.2
- fold induction at 50 µM (E. coli; 50 μM final drug concentration, […], read-out: AK-based Prestwick Library Screening Results, E. coli (fold increase in extracellular AK activity)): 1.1
- fold induction at 50 µM ([1]; 50 μM final drug concentration, […], read-out: AK-based Prestwick Library Screening Results, S. aureus (fold increase in extracellular AK activity)): 1.1
- fold induction at 50 µM ([2]; 50 μM final drug concentration, […], read-out: AK-based Prestwick Library Screening Results, A. baumannii (fold increase in extracellular AK activity)): 0.9

Compound: C=CC[N@@+]12CC[C@@]34c5ccccc5N5/C=C6/[C@H]7C[C@H]8[C@@]9(CC[N@@+]8(CC=C)C/C7=C/CO)c7ccccc7N(/C=C(/[C@@H](C[C@@H]31)/C(=C\CO)C2)[C@H]54)[C@@H]69.[Cl-].[Cl-] [Alcuronium chloride]
- AK-based Prestwick library screening result, E. faecium (fold increase in extracellular AK activity) (E. faecium; planktonic E. faecium, 50 μM final drug concentration, […]): 1.0
- AK-based Prestwick library screening result, P. aeruginosa (fold increase in extracellular AK activity) (P. aeruginosa; planktonic P. aeruginosa, 50 μM final drug concentration, […]): 1.0
- AK-based Prestwick library screening result, K. pneumoniae (fold increase in extracellular AK activity) (K. pneumoniae; planktonic K. pneumoniae, 50 μM final drug concentration, […]): 1.0
- AK-based Prestwick library screening result, E. cloacae (fold increase in extracellular AK activity) (E. cloacae; planktonic E. cloacae, 50 μM final drug concentration, […]): 2.2
- AK-based Prestwick library screening result, E. coli (fold increase in extracellular AK activity) (E. coli; planktonic E. coli, 50 μM final drug concentration, […]): 1.4
- AK-based Prestwick library screening result, S. aureus (fold increase in extracellular AK activity) ([1]; planktonic S. aureus, 50 μM final drug concentration, […]): 1.2
- AK-based Prestwick library screening result, A. baumannii (fold increase in extracellular AK activity) ([2]; planktonic A. baumannii, 50 μM final drug concentration, […]): 1.4

Compound: CC(=O)OCC(=O)[C@H]1CC[C@H]2[C@@H]3CC[C@H]4C[C@H](O)CC[C@]4(C)[C@H]3C(=O)C[C@]12C [Alfadolone acetate]
- fold induction at 50 µM (E. faecium; planktonic E. faecium, 50 μM final drug concentration, […], read-out: AK-based Prestwick library screening result, E. faecium (fold increase in extracellular AK activity)): 1.1
- fold induction at 50 µM (P. aeruginosa; planktonic P. aeruginosa, 50 μM final drug concentration, […], read-out: AK-based Prestwick library screening result, P. aeruginosa (fold increase in extracellular AK activity)): 1
- fold induction at 50 µM (K. pneumoniae; planktonic K. pneumoniae, 50 μM final drug concentration, […], read-out: AK-based Prestwick library screening result, K. pneumoniae (fold increase in extracellular AK activity)): 0.9
- fold induction at 50 µM (E. cloacae; planktonic E. cloacae, 50 μM final drug concentration, […], read-out: AK-based Prestwick library screening result, E. cloacae (fold increase in extracellular AK activity)): 1.4
- fold induction at 50 µM (E. coli; planktonic E. coli, 50 μM final drug concentration, […], read-out: AK-based Prestwick library screening result, E. coli (fold increase in extracellular AK activity)): 1.2
- fold induction at 50 µM ([1]; planktonic S. aureus, 50 μM final drug concentration, […], read-out: AK-based Prestwick library screening result, S. aureus (fold increase in extracellular AK activity)): 1
- fold induction at 50 µM ([2]; planktonic A. baumannii, 50 μM final drug concentration, […], read-out: AK-based Prestwick library screening result, A. baumannii (fold increase in extracellular AK activity)): 1

Compound: CC(=O)[C@H]1CC[C@H]2[C@@H]3CC[C@H]4C[C@H](O)CC[C@]4(C)[C@H]3C(=O)C[C@]12C [Alfaxalone]
- fold induction at 50 µM (E. faecium; read-out: AK-based Prestwick library screening result, E. faecium (fold increase in extracellular AK activity)): 1.1
- fold induction at 50 µM (P. aeruginosa; read-out: AK-based Prestwick library screening result, P. aeruginosa (fold increase in extracellular AK activity)): 1.2
- fold induction at 50 µM (K. pneumoniae; read-out: AK-based Prestwick library screening result, K. pneumoniae (fold increase in extracellular AK activity)): 1
- fold induction at 50 µM (E. cloacae; read-out: AK-based Prestwick library screening result, E. cloacae (fold increase in extracellular AK activity)): 1.7
- fold induction at 50 µM (E. coli; read-out: AK-based Prestwick library screening result, E. coli (fold increase in extracellular AK activity)): 1.2
- fold induction at 50 µM ([1]; read-out: AK-based Prestwick library screening result, S. aureus (fold increase in extracellular AK activity)): 1.2
- fold induction at 50 µM ([2]; read-out: AK-based Prestwick library screening result, A. baumannii (fold increase in extracellular AK activity)): 1

Compound: COc1cc2nc(N(C)CCCNC(=O)C3CCCO3)nc(N)c2cc1OC (centres unmarked) [Alfuzosin hydrochloride]
- fold induction at 50 µM (E. faecium; planktonic E. faecium, 50 μM final drug concentration, 384-well, cutoff for positive-scoring molecules 3-fold increase, read-out: AK-based Prestwick Library Screening Results: E. faecium (increase in extracellular AK activity)): 0.9
- fold induction at 50 µM (P. aeruginosa; planktonic P. aeruginosa, 50 μM final drug concentration, 384-well, cutoff for positive-scoring molecules 3-fold increase, read-out: AK-based Prestwick Library Screening Results: P. aeruginosa (increase in extracellular AK activity)): 0.4
- fold induction at 50 µM (K. pneumoniae; planktonic K. pneumoniae, 50 μM final drug concentration, 384-well, cutoff for positive-scoring molecules 3-fold increase, read-out: AK-based Prestwick Library Screening Results: K. pneumoniae (increase in extracellular AK activity)): 0.4
- fold induction at 50 µM (E. cloacae; planktonic E. cloacae, 50 μM final drug concentration, 384-well, cutoff for positive-scoring molecules 3-fold increase, read-out: AK-based Prestwick Library Screening Results: E. cloacae (increase in extracellular AK activity)): 0.4
- fold induction at 50 µM (E. coli; planktonic E. coli, 50 μM final drug concentration, 384-well, cutoff for positive-scoring molecules 3-fold increase, read-out: AK-based Prestwick Library Screening Results: E. coli (increase in extracellular AK activity)): 0.5
- fold induction at 50 µM ([1]; planktonic S. aureus, 50 μM final drug concentration, 384-well, cutoff for positive-scoring molecules 3-fold increase, read-out: AK-based Prestwick Library Screening Results: S. aureus (increase in extracellular AK activity)): 0.3
- fold induction at 50 µM ([2]; planktonic A. baumannii, 50 μM final drug concentration, 384-well, cutoff for positive-scoring molecules 3-fold increase, read-out: AK-based Prestwick Library Screening Results: A. baumannii (increase in extracellular AK activity)): 0.4

Compound: C=CCN1CCCC1CNC(=O)c1cc2[nH]nnc2cc1OC (centres unmarked) [Alizapride HCl]
- fold induction at 50 µM (E. faecium; 50 μM final drug concentration, planktonic, cutoff for positive 3-fold increase, read-out: AK-based Prestwick Library Screening Results, E. faecium (fold increase in extracellular AK activity)): 1
- fold induction at 50 µM (P. aeruginosa; 50 μM final drug concentration, planktonic, cutoff for positive 3-fold increase, read-out: AK-based Prestwick Library Screening Results, P. aeruginosa (fold increase in extracellular AK activity)): 1.1
- fold induction at 50 µM (K. pneumoniae; 50 μM final drug concentration, planktonic, cutoff for positive 3-fold increase, read-out: AK-based Prestwick Library Screening Results, K. pneumoniae (fold increase in extracellular AK activity)): 0.9
- fold induction at 50 µM (E. cloacae; 50 μM final drug concentration, planktonic, cutoff for positive 3-fold increase, read-out: AK-based Prestwick Library Screening Results, E. cloacae (fold increase in extracellular AK activity)): 1.4
- fold induction at 50 µM (E. coli; 50 μM final drug concentration, planktonic, cutoff for positive 3-fold increase, read-out: AK-based Prestwick Library Screening Results, E. coli (fold increase in extracellular AK activity)): 1
- fold induction at 50 µM ([1]; 50 μM final drug concentration, planktonic, cutoff for positive 3-fold increase, read-out: AK-based Prestwick Library Screening Results, S. aureus (fold increase in extracellular AK activity)): 1
- fold induction at 50 µM ([2]; 50 μM final drug concentration, planktonic, cutoff for positive 3-fold increase, read-out: AK-based Prestwick Library Screening Results, A. baumannii (fold increase in extracellular AK activity)): 1.1

Compound: NC(=O)NC1NC(=O)NC1=O (centres unmarked) [Allantoin]
- fold induction at 50 µM (E. faecium; [3]): 0.7
- fold induction at 50 µM (P. aeruginosa; [4]): 0.3
- fold induction at 50 µM (K. pneumoniae; [5]): 0.4
- fold induction at 50 µM (E. cloacae; [6]): 0.3
- fold induction at 50 µM (E. coli; [7]): 0.4
- fold induction at 50 µM [1, 8]: 1.4
- fold induction at 50 µM [2, 9]: 0.4

Compound: C=CCc1ccccc1OCC(O)CNC(C)C (centres unmarked) [Alprenolol hydrochloride]
- fold induction at 50 µM (E. faecium; [3]): 0.9
- fold induction at 50 µM (P. aeruginosa; [4]): 0.5
- fold induction at 50 µM (K. pneumoniae; [5]): 0.5
- fold induction at 50 µM (E. cloacae; [6]): 0.4
- fold induction at 50 µM (E. coli; [7]): 0.6
- fold induction at 50 µM [1, 8]: 0.6
- fold induction at 50 µM [2, 9]: 0.7
